How the values were obtained:
[1] = orally administrated, women; cited from earlier work
[2] = Particle size distribution of SHR0302 by laser diffraction (Malvern); assay type: physicochemical; settings: SHR0302 used in Example 1, FIG. 1
Text: In the pharmaceutical compositions of the present invention, the active ingredient is present as small particles. Particle size of the drug can be assessed using laser diffraction methods. Laser diffraction is recognized by standards and guidance agencies including ISO and ASTM and is widely used to determine particle size distributions. In conducting the assessment, the sample is passed through a laser beam, which results in laser light scattered at a range of angles. Detectors placed at fixed angles measure the intensity of light scattered at that position. A mathematical model is then applied to generate a particle size distribution. The particle size values reported herein are determined by using a liquid or wet dispersion method.
In particle size determinations, the median value is defined as the value where half of the population resides above this point, and half resides below this point. For particle size distributions the median is called the D50. The D50 is the size that splits the distribution with half above and half below this diameter. The distribution width may also be characterized by citing one, two or three values on the x-axis, typically some combination of the D10, D50, and D90. The D50, the median, has been defined above as the diameter where half of the population lies below this value. Similarly, 90 percent of the distribution lies below the D90, and 10 percent of the population lies below the D10.
A pharmaceutical composition comprising 3% SHR0302 suspended in dimethicone was prepared. The primary particle size distribution of the SHR0302 is characterized by a D10 value of less than about 0.25 μm; a D50 value of less than about 0.7 μm; and a D90 value of less than about 5 μm. The pharmaceutical composition was a transparent solution due to the particles being too small to scatter visible light. A Malvern Metasizer Model 3000 using the Hydro MV dispersion unit was used to determine the particle size distribution profile of SHR0302. […]

JAK1 = JAK1 (Homo sapiens, UniProt P23458); settings: cited from earlier work
Sequence of JAK1 (P23458 whole entry): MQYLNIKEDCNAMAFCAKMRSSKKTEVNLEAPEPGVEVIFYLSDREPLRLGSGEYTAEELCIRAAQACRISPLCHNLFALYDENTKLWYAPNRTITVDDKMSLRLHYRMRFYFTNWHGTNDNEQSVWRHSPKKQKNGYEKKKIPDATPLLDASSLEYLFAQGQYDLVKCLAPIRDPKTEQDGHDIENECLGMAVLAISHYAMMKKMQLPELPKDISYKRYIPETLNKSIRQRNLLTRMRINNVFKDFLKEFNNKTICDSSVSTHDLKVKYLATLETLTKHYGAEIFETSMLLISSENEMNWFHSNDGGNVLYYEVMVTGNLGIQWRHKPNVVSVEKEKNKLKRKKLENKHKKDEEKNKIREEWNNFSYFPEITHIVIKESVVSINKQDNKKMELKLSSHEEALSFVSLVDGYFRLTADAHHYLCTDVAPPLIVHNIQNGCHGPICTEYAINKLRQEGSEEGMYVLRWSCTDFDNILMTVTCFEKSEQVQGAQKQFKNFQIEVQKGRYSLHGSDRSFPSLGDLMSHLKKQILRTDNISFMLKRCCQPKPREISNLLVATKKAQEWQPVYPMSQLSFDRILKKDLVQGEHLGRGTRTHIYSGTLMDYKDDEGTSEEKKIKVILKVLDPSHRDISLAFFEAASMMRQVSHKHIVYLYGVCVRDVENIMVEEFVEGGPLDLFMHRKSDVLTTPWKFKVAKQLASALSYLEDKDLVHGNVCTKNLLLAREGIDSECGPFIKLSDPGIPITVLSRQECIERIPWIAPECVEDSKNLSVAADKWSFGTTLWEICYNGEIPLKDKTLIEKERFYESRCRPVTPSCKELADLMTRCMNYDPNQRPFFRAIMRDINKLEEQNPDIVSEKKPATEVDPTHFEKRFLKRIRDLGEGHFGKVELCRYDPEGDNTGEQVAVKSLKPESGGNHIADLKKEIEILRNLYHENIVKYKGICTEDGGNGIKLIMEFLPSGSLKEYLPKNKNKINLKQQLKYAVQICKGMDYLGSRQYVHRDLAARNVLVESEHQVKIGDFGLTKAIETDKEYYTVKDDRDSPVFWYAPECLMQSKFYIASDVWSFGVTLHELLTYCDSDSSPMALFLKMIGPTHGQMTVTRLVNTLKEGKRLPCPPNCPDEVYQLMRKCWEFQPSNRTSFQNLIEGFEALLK

primary particle size D10 [2] | primary particle size D50 [2] | primary particle size D90 [2] | Structure (SMILES) | efficacy in treatment of acne [1] | inhibition of JAK1 (JAK1)
– | – | – | CC(=O)S[C@@H]1CC2=CC(=O)CC[C@]2(C)[C@H]2CC[C@@]3(C)[C@@H](CC[C@@]34CCC(=O)O4)[C@H]12 [spironolactone, 17-hydroxy-7α-mercapto-3-oxo-17α-pregn-4-ene-21-carboxylic acid γ-lactone acetate] | efficacious | –
less than 0.25 μm | less than 0.7 μm | less than 5 μm | COc1nsc(NC(=O)N2C[C@H]3C[C@H](N(C)c4ncnc5[nH]ccc45)C[C@H]3C2)n1 [SHR0302, (3aR,5S,6aS)-N-(3-methoxyl-1,2,4-thiadiazol-5-yl)-5-(methyl(7H-pyrrolo[2,3-d]pyrimidin-4-yl)amino)hexahydrocyclopenta[c]pyrrole-2(1H)-carboxamide] | – | potent
